Experimental data from patent publication US10647713B2 (Nimbus Lakshmi, Inc., priority 2016, dated 2020).

molecular target: human TYK2 (JH2domain-pseudokinase) (Homo sapiens (Human), UniProt P29597); experiment: TYK2 JH2 Domain Binding Assay (KINOMEscan, DiscoveRx); conditions: 11-point dilution, duplicate
How it was run: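 TYK2 JH2 (G556–D888)–NFkB DBD fusion, DNA-tagged, from HEK293 extracts (<0.1 nM) competed against immobilised biotinylated ligand for 1 h at room temperature, 0.9% DMSO. Bead-retained kinase quantified by qPCR; Kd from 11-point 3-fold series (top 30,000 nM, duplicate), Hill fit with slope −1.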

Chain of human TYK2 (JH2domain-pseudokinase) (P29597 556-888): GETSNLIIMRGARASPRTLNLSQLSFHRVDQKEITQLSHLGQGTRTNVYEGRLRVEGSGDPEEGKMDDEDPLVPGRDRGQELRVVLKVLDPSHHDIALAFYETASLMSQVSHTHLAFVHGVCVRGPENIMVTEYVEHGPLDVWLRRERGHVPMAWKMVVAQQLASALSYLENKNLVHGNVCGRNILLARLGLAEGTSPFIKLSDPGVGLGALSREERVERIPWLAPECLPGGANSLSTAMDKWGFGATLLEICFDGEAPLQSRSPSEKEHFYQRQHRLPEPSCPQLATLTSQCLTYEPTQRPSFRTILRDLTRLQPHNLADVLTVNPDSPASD

Compound | Kd [nM]
COc1c(Nc2cc(NC(=O)[C@H]3C[C@H]3F)nc3[nH]c(C(F)F)nc23)cccc1-c1ncn(C)n1 [I-440, (1R,2R)—N-(2-(difluoromethyl)-7-((2-methoxy-3-(1-methyl-1H-1,2,4-triazol-3-yl)phenyl)amino)-3H-imidazo[4,5-b]pyridin-5-yl)-2-fluorocyclopropane-1-carboxamide] | 0.1 to 0.5
Cc1nc2c(Nc3ccccc3[S@+](C)[O-])cc(NC(=O)C3CC3)nc2[nH]1 [I-441, (S)—N-(2-methyl-7-((2-(methylsulfinyl)phenyl)amino)-3H-imidazo[4,5-b]pyridin-5-yl)cyclopropanecarboxamide] | 1 to 10
Cc1nc2c(Nc3ccccc3[S@@+](C)[O-])cc(NC(=O)C3CC3)nc2[nH]1 [I-442, (R)—N-(2-methyl-7-((2-(methylsulfinyl)phenyl)amino)-3H-imidazo[4,5-b]pyridin-5-yl)cyclopropanecarboxamide] | > 10
CP(C)(=O)c1cc(C2CCC2)ccc1Nc1cc(NC(=O)C2CC2)nc2[nH]c(C(F)F)nc12 [I-444, N-(7-((4-cyclobutyl-2-(dimethylphosphoryl)phenyl)amino)-2-(difluoromethyl)-3H-imidazo[4,5-b]pyridin-5-yl)cyclopropane carboxamide] | 0.1 to 0.5
Cc1nc2c(Nc3ccc(C4CCC4)cc3P(C)(C)=O)cc(NC(=O)C3CC3)nc2[nH]1 [I-445, N-(7-((4-cyclobutyl-2-(dimethylphosphoryl)phenyl)amino)-2-methyl-3H-imidazo[4,5-b]pyridin-5-yl)cyclopropanecarboxamide] | 0.1 to 0.5
CS(=O)(=O)c1cc([C@@H]2CCOC2)ccc1Nc1cc(NC(=O)C2CC2)nc2[nH]c(C(F)F)nc12 [I-452, (S)—N-(2-(difluoromethyl)-7-((2-(methylsulfonyl)-4-(tetrahydrofuran-3-yl)phenyl)amino)-3H-imidazo[4,5-b]pyridin-5-yl)cyclopropanecarboxamide] | 0.5 to 1
CS(=O)(=O)c1cc([C@H]2CCOC2)ccc1Nc1cc(NC(=O)C2CC2)nc2[nH]c(C(F)F)nc12 [I-453, (R)—N-(2-(difluoromethyl)-7-((2-(methylsulfonyl)-4-(tetrahydrofuran-3-yl)phenyl)amino)-3H-imidazo[4,5-b]pyridin-5-yl)cyclopropanecarboxamide] | 0.1 to 0.5
CO[C@H](C)c1ccc(Nc2cc(NC(=O)C3CC3)nc3[nH]c(C(F)F)nc23)c(S(C)(=O)=O)c1 [I-454, (R)—N-(2-(difluoromethyl)-7-((4-(1-methoxyethyl)-2-(methylsulfonyl)phenyl)amino)-3H-imidazo[4,5-b]pyridin-5-yl)cyclopropanecarboxamide] | 0.5 to 1
CO[C@@H](C)c1ccc(Nc2cc(NC(=O)C3CC3)nc3[nH]c(C(F)F)nc23)c(S(C)(=O)=O)c1 [I-455, (S)—N-(2-(difluoromethyl)-7-((4-(1-methoxyethyl)-2-(methylsulfonyl)phenyl)amino)-3H-imidazo[4,5-b]pyridin-5-yl)cyclopropanecarboxamide] | 1 to 10

Continued, values first:

Kd [nM] | Compound
0.1 to 0.5 | Cc1nc2c(Nc3ccc(F)cc3S(C)(=O)=O)cc(NC(=O)C3CC3)nc2[nH]1 [I-443, N-(7-((4-fluoro-2-(methylsulfonyl)phenyl)amino)-2-methyl-3H-imidazo[4,5-b]pyridin-5-yl)cyclopropanecarboxamide]
0.1 to 0.5 | Cc1nn(C)c(C)c1-c1ccc(Nc2cc(NC(=O)C3CC3)nc3[nH]c(C(F)F)nc23)c(S(C)(=O)=O)c1 [I-446, N-(2-(difluoromethyl)-7-((2-(methylsulfonyl)-4-(1,3,5-trimethyl-1H-pyrazol-4-yl)phenyl)amino)-3H-imidazo[4,5-b]pyridin-5-yl)cyclopropanecarboxamide]
0.1 to 0.5 | Cc1nc2c(Nc3ccc(-c4c(C)nn(C)c4C)cc3S(C)(=O)=O)cc(NC(=O)C3CC3)nc2[nH]1 [I-447, N-(2-methyl-7-((2-(methylsulfonyl)-4-(1,3,5-trimethyl-1H-pyrazol-4-yl)phenyl)amino)-3H-imidazo[4,5-b]pyridin-5-yl)cyclopropanecarboxamide]
0.1 to 0.5 | [2H]C([2H])([2H])S(=O)(=O)N(C)c1ccccc1Nc1cc(Nc2cc(C)nc(C)n2)nc2[nH]c(C(F)F)nc12 [I-448, N-(2-((2-(difluoromethyl)-5-((2,6-dimethylpyrimidin-4-yl)amino)-3H-imidazo[4,5-b]pyridin-7-yl)amino)phenyl)-N-methylmethanesulfonamide-d3]
0.1 to 0.5 | Cc1nc2c(Nc3ccc(-c4nn(C)cc4C)cc3S(C)(=O)=O)cc(Nc3cnc(C)c(C)n3)nc2[nH]1 [I-449, N7-(4-(1,4-dimethyl-1H-pyrazol-3-yl)-2-(methylsulfonyl)phenyl)-N5-(5,6-dimethylpyrazin-2-yl)-2-methyl-3H-imidazo[4,5-b]pyridine-5,7-diamine]
0.1 to 0.5 | Cc1cn(C)c(-c2ccc(Nc3cc(NC(=O)C4CC4)nc4[nH]c(C(F)F)nc34)c(S(C)(=O)=O)c2)n1 [I-450, N-(2-(difluoromethyl)-7-((4-(1,4-dimethyl-1H-imidazol-2-yl)-2-(methylsulfonyl)phenyl)amino)-3H-imidazo[4,5-b]pyridin-5-yl)cyclopropanecarboxamide]
0.1 to 0.5 | Cc1cnc(-c2ccc(Nc3cc(NC(=O)C4CC4)nc4[nH]c(C(F)F)nc34)c(S(C)(=O)=O)c2)n1C [I-451, N-(2-(difluoromethyl)-7-((4-(1,5-dimethyl-1H-imidazol-2-yl)-2-(methylsulfonyl)phenyl)amino)-3H-imidazo[4,5-b]pyridin-5-yl)cyclopropaneCarboxamide]
0.1 to 0.5 | [2H]C([2H])([2H])S(=O)(=O)N(C)c1ccccc1Nc1cc(Nc2cc(C)nc(C)n2)nc2[nH]c(C)nc12 [I-456, N-(2-((5-((2,6-dimethylpyrimidin-4-yl)amino)-2-methyl-3H-imidazo[4,5-b]pyridin-7-yl)amino)phenyl)-N-methylmethanesulfonamide-d3]
0.1 to 0.5 | [2H]C([2H])([2H])N(c1ccccc1Nc1cc(Nc2cc(C)nc(C)n2)nc2[nH]c(C(F)F)nc12)S(=O)(=O)C([2H])([2H])[2H] [I-457, N-(2-((2-(difluoromethyl)-5-((2,6-dimethylpyrimidin-4-yl)amino)-3H-imidazo[4,5-b]pyridin-7-yl)amino)phenyl)-N-(methyl-d3)methanesulfonamide-d3]
0.1 to 0.5 | [2H]C([2H])([2H])N(c1ccccc1Nc1cc(Nc2cc(C)nc(C)n2)nc2[nH]c(C)nc12)S(=O)(=O)C([2H])([2H])[2H] [I-458, N-(2-((5-((2,6-dimethylpyrimidin-4-yl)amino)-2-methyl-3H-imidazo[4,5-b]pyridin-7-yl)amino)phenyl)-N-(methyl-d3)methanesulfonamide-d3]
1 to 10 | Cc1cn(C)nc1-c1ccc(Nc2cc(NC(=O)[C@@H]3CC3(C)C)nc3[nH]c(C(F)F)nc23)c(S(C)(=O)=O)c1 [I-459, (R)—N-(2-(difluoromethyl)-7-((4-(1,4-dimethyl-1H-pyrazol-3-yl)-2-(methylsulfonyl)phenyl)amino)-3H-imidazo[4,5-b]pyridin-5-yl)-2,2-dimethylcyclopropane-1-carboxamide]
1 to 10 | Cc1cn(C)nc1-c1ccc(Nc2cc(NC(=O)[C@H]3CC3(C)C)nc3[nH]c(C(F)F)nc23)c(S(C)(=O)=O)c1 [I-460, (S)—N-(2-(difluoromethyl)-7-((4-(1,4-dimethyl-1H-pyrazol-3-yl)-2-(methylsulfonyl)phenyl)amino)-3H-imidazo[4,5-b]pyridin-5-yl)-2,2-dimethylcyclopropane-1-carboxamide]
